From patent publication US20240116985A1, “STAPLED PEPTIDES AND METHODS THEREOF” (priority 2020, published 2024) come the findings set out here.

For this assay, the target named is T1, full-length beta-Catenin (Uniprot ID P35222) (Homo sapiens, UniProt P35222).
T1 construct: 10 nM full-length beta-Catenin (Uniprot ID P35222)
T1 sequence (P35222 1-781): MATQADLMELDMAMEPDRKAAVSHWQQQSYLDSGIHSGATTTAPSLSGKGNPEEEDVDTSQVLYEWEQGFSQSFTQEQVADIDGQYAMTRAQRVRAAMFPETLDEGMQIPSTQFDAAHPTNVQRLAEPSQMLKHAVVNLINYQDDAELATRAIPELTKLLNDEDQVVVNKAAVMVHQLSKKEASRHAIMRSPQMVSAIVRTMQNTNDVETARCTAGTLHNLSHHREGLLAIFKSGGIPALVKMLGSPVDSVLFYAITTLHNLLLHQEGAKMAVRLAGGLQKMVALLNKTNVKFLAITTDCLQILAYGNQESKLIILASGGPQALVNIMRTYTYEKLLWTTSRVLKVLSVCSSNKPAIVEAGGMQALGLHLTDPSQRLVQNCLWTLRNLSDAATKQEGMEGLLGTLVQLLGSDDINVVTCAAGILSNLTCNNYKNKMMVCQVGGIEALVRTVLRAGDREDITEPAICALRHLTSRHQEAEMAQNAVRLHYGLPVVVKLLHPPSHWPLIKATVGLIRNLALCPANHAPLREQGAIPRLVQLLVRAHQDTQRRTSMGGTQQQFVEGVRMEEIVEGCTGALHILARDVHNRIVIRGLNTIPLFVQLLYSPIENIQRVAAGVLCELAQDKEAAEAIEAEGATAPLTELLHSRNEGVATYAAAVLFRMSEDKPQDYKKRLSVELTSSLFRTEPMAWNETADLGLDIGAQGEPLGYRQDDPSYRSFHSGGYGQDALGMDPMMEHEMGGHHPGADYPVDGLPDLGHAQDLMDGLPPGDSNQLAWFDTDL
In words: Fluorescence polarization IC50 (beta-catenin / 5FAM-TCF4 10-53 competition). The assay is classed as binding. The settings on record: fluorescence polarization; read-out: beta-Catenin FP IC50.

Broadly, the IC50 is the point on the concentration scale where inhibition reaches its midpoint. With `CC(=O)N1CCC[C@]12CC=CCCCC1(CCCC=CCCCOC(=O)N3CC[C@@](C(=O)N[C@@H](Cc4cccnc4)C(=O)N[C@@H](Cc4csc5ccccc45)C(=O)N[C@@H](CCO)C(N)=O)(C3)NC(=O)[C@H](CC(N)=O)NC(=O)[C@H](Cc3ccccc3)NC(=O)[C@H](C)NC(=O)[C@H](CCCCNC(C)C)NC(=O)[C@H](CCC(N)=O)NC(=O)[C@H](CC(=O)O)NC1=O)NC(=O)[C@H](CC1CCCCC1)NC(=O)[C@H](CC(N)=O)NC2=O` (stereo partly drawn) [I-1927, Ac-PL3-Asn-Cha-B5-Asp-Gln-iPrLys-Ala-Phe-Asn-PyrS2-3PyrA-BztA-Hse-NH2], the IC50 was 5.14 µM.

As to `CC(=O)N1CCC[C@]12CC=CCCCC1(CCCC=CCCCOC(=O)N3CC[C@@](C(=O)N[C@@H](Cc4cccc(Cl)c4)C(=O)N[C@@H](Cc4csc5ccccc45)C(=O)N[C@@H](CCO)C(N)=O)(C3)NC(=O)[C@H](CC(N)=O)NC(=O)[C@H](Cc3ccccc3)NC(=O)[C@H](C)NC(=O)[C@H](CCCCNC(C)C)NC(=O)[C@H](CCC(N)=O)NC(=O)[C@H](CC(=O)O)NC1=O)NC(=O)[C@H](CC1CCCCC1)NC(=O)[C@H](CC(N)=O)NC2=O` (stereo partly drawn) [I-1928, Ac-PL3-Asn-Cha-B5-Asp-Gln-iPrLys-Ala-Phe-Asn-PyrS2-3C1F-BztA-Hse-NH2], the IC50 turned out to be 0.887 µM.

In the case of `COc1cccc(C[C@H](NC(=O)[C@]23CCN(C2)C(=O)OCCCC=CCCCC2(CCCC=CC[C@]4(CCCN4C(C)=O)C(=O)N[C@@H](CC(N)=O)C(=O)N[C@@H](CC4CCCCC4)C(=O)N2)C(=O)N[C@@H](CC(=O)O)C(=O)N[C@@H](CCC(N)=O)C(=O)N[C@@H](CCCCNC(C)C)C(=O)N[C@@H](C)C(=O)N[C@@H](Cc2ccccc2)C(=O)N[C@@H](CC(N)=O)C(=O)N3)C(=O)N[C@@H](Cc2csc3ccccc23)C(=O)N[C@@H](CCO)C(N)=O)c1` (stereo partly drawn) [I-1930, Ac-PL3-Asn-Cha-B5-Asp-Gln-iPrLys-Ala-Phe-Asn-PyrS2-3OMeF-BztA-Hse-NH2], the IC50 is 1.56 µM.

`CC(=O)N1CCC[C@]12CC=CCCCC1(CCCC=CCCCOC(=O)N3CC[C@@](C(=O)N[C@@H](Cc4ccccc4)C(=O)N[C@@H](Cc4csc5ccccc45)C(=O)N[C@@H](CCO)C(N)=O)(C3)NC(=O)[C@H](CC(N)=O)NC(=O)[C@H](Cc3ccccc3)NC(=O)[C@H](CO)NC(=O)[C@H](CCCCNC(C)C)NC(=O)[C@H](CCC(N)=O)NC(=O)[C@H](CC(=O)O)NC1=O)NC(=O)[C@H](CC1CCCCC1)NC(=O)[C@H](CC(N)=O)NC2=O` (stereo partly drawn) [I-1931, Ac-PL3-Asn-Cha-B5-Asp-Gln-iPrLys-Ser-Phe-Asn-PyrS2-Phe-BztA-Hse-NH2]: the IC50 turned out to be 1.56 µM.

For the molecule `CC(=O)N1CCC[C@]12CC=CCCCC1(CCCC=CCCCOC(=O)N3CC[C@@](C(=O)N[C@@H](Cc4ccccc4)C(=O)N[C@@H](Cc4csc5ccccc45)C(=O)N[C@@H](CCO)C(N)=O)(C3)NC(=O)[C@H](CC(N)=O)NC(=O)[C@H](Cc3ccccc3)NC(=O)[C@H](C)NC(=O)[C@H](CCCCNC(C)C)NC(=O)[C@H](CCC(N)=O)NC(=O)[C@H](CC(=O)O)NC1=O)NC(=O)[C@H](CC1CCCCC1)NC(=O)[C@H](CCO)NC2=O` (stereo partly drawn) [I-1932, Ac-PL3-Hse-Cha-B5-Asp-Gln-iPrLys-Ala-Phe-Asn-PyrS2-Phe-BztA-Hse-NH2], the IC50 came out at 0.285 µM.

Consider `CC(=O)N1CCC[C@]12CC=CCCCC1(CCCC=CCCCOC(=O)N3CC[C@@](C(=O)N[C@@H](Cc4ccccc4)C(=O)N[C@@H](Cc4csc5ccccc45)C(=O)N[C@@H](CCO)C(N)=O)(C3)NC(=O)[C@H](CC(N)=O)NC(=O)[C@H](Cc3ccccc3)NC(=O)[C@H](C)NC(=O)[C@H](CCCCNC(C)C)NC(=O)[C@H](CCO)NC(=O)[C@H](CC(=O)O)NC1=O)NC(=O)[C@H](CC1CCCCC1)NC(=O)[C@H](CC(N)=O)NC2=O` (stereo partly drawn) [I-1933, Ac-PL3-Asn-Cha-B5-Asp-Hse-iPrLys-Ala-Phe-Asn-PyrS2-Phe-BztA-Hse-NH2], for which the IC50 worked out at 0.154 µM.
